Here are results for 9 molecules from ChEMBL document CHEMBL3044557, “Phytotoxicity Caused by Peroxidizing Herbicides Is Alleviated by 2-Substituted 4, 6-Bis(ethylamino)-1, 3, 5-triazines” (J Pestic Sci, 1997).

Calls of active or inactive are those of the source. The rule behind the calls is not given here.

In experiment [1] the test system is Scenedesmus acutus. Briefly: Phytotoxicity against Scenedesmus acutus in dark condition assessed as effect on protoporphyrin-9 accumulation per ml of packed cell volume at 10^-5 M after 16 hr. The experiment is classed as functional, organism-based.
Experiment [2] relates to Scenedesmus acutus. Briefly: Protection against chlorophthalim-induced phytotoxicity in Scenedesmus acutus in light condition assessed as cell density per micro liter of packed cell volume after 16 hr (reference value: 2.1 ml). Also on record: unit not given here. The experiment is classed as functional.
The test system of experiment [3] is Scenedesmus acutus. Briefly: Phytotoxicity against Scenedesmus acutus in light condition assessed as reduction of chlorophyll content after 16 hr (reference value: 20.25 ug/ml). The experiment is classed as functional.
Experiment [4] deals with Scenedesmus acutus. Briefly: Protection against oxyfluorfen-induced phytotoxicity in Scenedesmus acutus in light condition assessed as reduction of protoporphyrin-9 accumulation per ml of packed cell volume after 2 hr. The experiment is classed as functional.
Experiment [5] has as its system Scenedesmus acutus. Kind of experiment: Phytotoxicity against Scenedesmus acutus in light condition assessed as effect on protoporphyrin-9 accumulation per ml of packed cell volume at 10^-5 M after 16 hr. The experiment is classed as functional, organism-based.
For experiment [6], the system named is Scenedesmus acutus. Briefly: Protection against oxyfluorfen-induced phytotoxicity in Scenedesmus acutus in light condition assessed as increase of chlorophyll content after 16 hr (reference value: 0.94 ug/ml). The experiment is classed as functional.
For experiment [7], the system named is Scenedesmus acutus. Kind of experiment: Protection against chlorophthalim-induced phytotoxicity in Scenedesmus acutus in light condition assessed as reduction of ethane formation per ml of packed cell volume after 16 hr (reference value: 11.82 nM). The experiment is classed as functional.
The test system of experiment [8] is Scenedesmus acutus. Kind of experiment: Protection against chlorophthalim-induced phytotoxicity in Scenedesmus acutus in light condition assessed as reduction of protoporphyrin-9 accumulation per ml of packed cell volume after 2 hr. The experiment is classed as functional.
In experiment [9] the test system is Scenedesmus acutus. Briefly: Protection against chlorophthalim-induced phytotoxicity in Scenedesmus acutus in light condition assessed as increase of chlorophyll content after 16 hr (reference value: 0.94 ug/ml). The experiment is classed as functional.
The test system of experiment [10] is Scenedesmus acutus. Kind of experiment: Phytotoxicity against Scenedesmus acutus in light condition assessed as cell density per micro liter of packed cell volume after 16 hr (reference value: 3.4 ml). The experiment is classed as functional. Also on record: unit not given here.
The test system of experiment [11] is Scenedesmus acutus. Briefly: Protection against oxyfluorfen-induced phytotoxicity in Scenedesmus acutus in light condition assessed as cell density per micro liter of packed cell volume after 16 hr (reference value: 2.1 ml). The experiment is classed as functional. On the set-up: unit not given here.
The test system of experiment [12] is Scenedesmus acutus. Kind of experiment: Protection against oxyfluorfen-induced phytotoxicity in Scenedesmus acutus in light condition assessed as reduction of ethane formation per ml of packed cell volume after 16 hr (reference value: 11.82 nM). The experiment is classed as functional.

Consider `CCNc1nc(NCC)nc(C(F)(F)F)n1`, for which the outcome in the experiment on Scenedesmus acutus [1] and with Scenedesmus acutus [5] was inactive. The Activity is 2.4 with Scenedesmus acutus [2]; 16.7 µg/mL in the experiment on Scenedesmus acutus [3]; 31.24 nM with Scenedesmus acutus [4]; 13.53 µg/mL with Scenedesmus acutus [6]; 3.2 nmol/mL with Scenedesmus acutus [7]; 38.65 nmol/mL in the experiment with Scenedesmus acutus [8]. The Activity in the experiment with Scenedesmus acutus [9] is 11.04 µg/mL; in the experiment on Scenedesmus acutus [10] it was 2.6; with Scenedesmus acutus [11] it was 2.4; in the experiment on Scenedesmus acutus [12] it was 1.26 nM.

Regarding `CCNc1nc(NCC)nc(C(Cl)(Cl)Cl)n1`, the result in the experiment on Scenedesmus acutus [1] and in the experiment with Scenedesmus acutus [5] was inactive. The Activity in the experiment on Scenedesmus acutus [2] came to 2.4; in the experiment on Scenedesmus acutus [3], 19.23 µg/mL; in the experiment with Scenedesmus acutus [4] it was 37.08 nM; with Scenedesmus acutus [6], 13.31 µg/mL; in the experiment on Scenedesmus acutus [7], 3.63 nmol/mL; in the experiment with Scenedesmus acutus [8] it was 27.65 nmol/mL. Also, the Activity in the experiment with Scenedesmus acutus [9] worked out at 10.48 µg/mL; in the experiment on Scenedesmus acutus [10] it was 2.6; in the experiment on Scenedesmus acutus [11], 2.2; in the experiment with Scenedesmus acutus [12] it was 1.63 nM.

As for `CCNc1nc(C)nc(NCC)n1`, the result with Scenedesmus acutus [1] and in the experiment on Scenedesmus acutus [5] was inactive. The Activity was 2.3 in the experiment on Scenedesmus acutus [2]; 19.09 µg/mL in the experiment with Scenedesmus acutus [3]; 57.97 nM with Scenedesmus acutus [4]; 1.05 µg/mL in the experiment with Scenedesmus acutus [6]; 12.92 nmol/mL with Scenedesmus acutus [7]; 67.45 nmol/mL in the experiment on Scenedesmus acutus [8]. The Activity in the experiment on Scenedesmus acutus [9] amounted to 1.37 µg/mL; in the experiment on Scenedesmus acutus [10] it was 3; in the experiment on Scenedesmus acutus [11], 2.3; in the experiment with Scenedesmus acutus [12], 11.93 nM.

For the molecule `CN(C)C(=O)Nc1ccc(Cl)c(Cl)c1` [DCMU], the Activity in the experiment with Scenedesmus acutus [3] was 17.66 µg/mL; with Scenedesmus acutus [4], 29.12 nM; in the experiment on Scenedesmus acutus [6], 14.57 µg/mL; in the experiment with Scenedesmus acutus [7] it was 0.41 nmol/mL; in the experiment on Scenedesmus acutus [8] it was 18.86 nmol/mL; in the experiment with Scenedesmus acutus [9] it was 11.56 µg/mL.

`CCNc1nc(Cl)nc(NCC)n1` [SIMAZINE]: the outcome in the experiment on Scenedesmus acutus [1] and in the experiment on Scenedesmus acutus [5] was inactive. Besides, the Activity with Scenedesmus acutus [3] is 16.86 µg/mL; in the experiment with Scenedesmus acutus [4], 52.7 nM; in the experiment with Scenedesmus acutus [6] it was 13.05 µg/mL; in the experiment on Scenedesmus acutus [7] it was 4.24 nmol/mL; with Scenedesmus acutus [8], 19.15 nmol/mL; in the experiment on Scenedesmus acutus [9], 10.52 µg/mL. The Activity with Scenedesmus acutus [12] was 2.82 nM.

Turning to `CCNc1nc(NCC)nc(-c2ccccc2)n1`, the outcome with Scenedesmus acutus [1] and in the experiment on Scenedesmus acutus [5] was inactive. Further, the Activity turned out to be 2.3 with Scenedesmus acutus [2]; 19.08 µg/mL in the experiment with Scenedesmus acutus [3]; 69.9 nM in the experiment on Scenedesmus acutus [4]; 0.67 µg/mL with Scenedesmus acutus [6]; 13.64 nmol/mL in the experiment on Scenedesmus acutus [7]; 133.96 nmol/mL with Scenedesmus acutus [8]. Moreover, the Activity in the experiment on Scenedesmus acutus [9] came to 0.46 µg/mL; in the experiment on Scenedesmus acutus [10], 3.2; with Scenedesmus acutus [11], 2.2; in the experiment with Scenedesmus acutus [12] it was 11.93 nM.

For the molecule `CCOc1cc(Oc2ccc(C(F)(F)F)cc2Cl)ccc1[N+](=O)[O-]` [OXYFLUORFEN], the figures for the Activity in the experiment with Scenedesmus acutus [4], in the experiment on Scenedesmus acutus [6] and in the experiment on Scenedesmus acutus [12] were 102.38 nM, 0.94 µg/mL and 11.82 nM, respectively.

For the molecule `O=C1C2=C(CCCC2)C(=O)N1c1ccc(Cl)cc1` [CHLOROPHTHALIUM], the Activity in the experiment with Scenedesmus acutus [2] came to 2.3; with Scenedesmus acutus [7], 12.73 nmol/mL; in the experiment with Scenedesmus acutus [8], 128.65 nmol/mL; in the experiment with Scenedesmus acutus [9], 0.99 µg/mL.

Take `CCNc1nc(NCC)nc(SC)n1` [SIMETRYN]: the result in the experiment with Scenedesmus acutus [1] and in the experiment on Scenedesmus acutus [5] was inactive. The Activity in the experiment with Scenedesmus acutus [3] turned out to be 17.74 µg/mL; in the experiment with Scenedesmus acutus [4], 30.67 nM; with Scenedesmus acutus [6], 14.46 µg/mL; in the experiment on Scenedesmus acutus [7], 1.7 nmol/mL; in the experiment with Scenedesmus acutus [8], 31.92 nmol/mL; in the experiment on Scenedesmus acutus [9], 10.52 µg/mL. For the same molecule, the Activity with Scenedesmus acutus [12] stood at 0.4 nM.
